The structures appear in SMILES notation. ≈ marks a conversion by molar mass, not a printed value.

Holding throughout (format): functional
Experiment [1] concerns Bacillus subtilis. Kind of experiment: Antibacterial activity against Bacillus subtilis after 16 hrs.
In experiment [2] the test system is Saccharomyces cerevisiae. As to the kind of experiment: Antifungal activity against Saccharomyces cerevisiae after 16 hrs.
The test system of experiment [3] is Escherichia coli. Kind of experiment: Antibacterial activity against Escherichia coli after 16 hrs.

The MIC is the smallest concentration in the dilution series that meets the test's criterion for growth inhibition. A low value points to greater potency. For `Cc1ccc(-c2ccc(C=O)c(-c3ccc([N+](=O)[O-])cc3)c2)o1`, the MIC in experiment [1], in experiment [2] and in experiment [3] was over 100 µg/mL each time.

Consider `Cc1ccc(C2=CC=C(C=O)C(C)(c3ccc(C)o3)C2)o1` (stereo unspecified), for which the MIC in experiment [1], in experiment [2] and in experiment [3] was over 100 µg/mL each time.

`CC(C)=CCCc1ccc(C=O)c(-c2ccccc2)c1`: the MIC in experiment [1], in experiment [2] and in experiment [3] was over 100 µg/mL each time.

Take `O=Cc1ccc(-c2ccccc2)cc1-c1ccc([N+](=O)[O-])cc1`: the MIC in experiment [1], in experiment [2] and in experiment [3] was over 100 µg/mL in each case.

Regarding `CC1=CC=C(C=O)C(c2ccc(N(C)C)cc2)C1` (stereo unspecified), the MIC in experiment [1], in experiment [2] and in experiment [3] was over 100 µg/mL throughout.

`CC1C(c2cccs2)=CC=C(C=O)C1c1ccccc1` (stereo unspecified): the MIC in experiment [1], in experiment [2] and in experiment [3] was over 100 µg/mL each time.

For `O=CC1=CC=C(c2ccc(-c3ccccc3)cc2)CC1c1ccccc1` (stereo unspecified), the MIC in experiment [1], in experiment [2] and in experiment [3] was over 100 µg/mL each time.

As for `CC1C(c2cccs2)=CC=C(C=O)C1c1ccc(N(C)C)cc1` (stereo unspecified), the MIC in experiment [1], in experiment [2] and in experiment [3] was over 100 µg/mL in each case.

Regarding `O=CC1=CC=C(c2ccc3ccccc3c2)CC1c1ccccc1` (stereo unspecified), the MIC in experiment [1], in experiment [2] and in experiment [3] was over 100 µg/mL throughout.

With `O=CC1=CC=C(c2ccc(-c3ccccc3)cc2)CC1`, the MIC in experiment [1], in experiment [2] and in experiment [3] was over 100 µg/mL each time.

With `CC(C)=CCC/C(C)=C/CCC1=CC=C(C=O)C(C)(CC/C=C(\C)CCC=C(C)C)C1` (stereo unspecified), the MIC in experiment [1], in experiment [2] and in experiment [3] was over 100 µg/mL each time.

In the case of `CC1=C(/C=C/C(C)=C/C=C/C2=CC=C(C=O)C(c3ccc(N(C)C)cc3)C2)C(C)(C)CCC1` (stereo unspecified), the minimum inhibitory concentration (MIC) in experiment [1], in experiment [2] and in experiment [3] was over 100 µg/mL each time.

With `CC(C)=CC[C@@H]1C(C)=CC=C(C=O)[C@H]1c1ccc(N(C)C)cc1`, the MIC in experiment [1], in experiment [2] and in experiment [3] was over 100 µg/mL throughout.

Consider `CC1C(c2cccs2)=CC=C(C=O)C1c1ccc([N+](=O)[O-])cc1` (stereo unspecified), for which the MIC in experiment [1], in experiment [2] and in experiment [3] was over 100 µg/mL each time.

In the case of `O=CC1=CC=C(c2cccs2)CC1c1ccccc1` (stereo unspecified), the MIC in experiment [1], in experiment [2] and in experiment [3] was over 100 µg/mL each time.

As for `CC1=C(/C=C/C2=CC=C(C=O)C(C)(/C=C/C3=C(C)CCCC3(C)C)C2)C(C)(C)CCC1` (stereo unspecified), the MIC in experiment [1], in experiment [2] and in experiment [3] was over 100 µg/mL in each case.

As for `CC(C)=CCCc1ccc(C=O)c(-c2ccc([N+](=O)[O-])cc2)c1`, the MIC in experiment [1], in experiment [2] and in experiment [3] was over 100 µg/mL in each case.

For `CC(C)=CCC/C(C)=C/C[C@H]1C(C)=CC=C(C=O)[C@H]1c1ccccc1`, the MIC in experiment [1], in experiment [2] and in experiment [3] was over 100 µg/mL in each case.

Consider `CC1CC(c2cccs2)=CC=C1C=O` (stereo unspecified), for which the MIC in experiment [1], in experiment [2] and in experiment [3] was over 100 µg/mL throughout.

In the case of `O=CC1=CC=C(c2ccc3c(c2)Cc2ccccc2-3)CC1c1ccccc1` (stereo unspecified), the MIC in experiment [1], in experiment [2] and in experiment [3] was over 100 µg/mL throughout.

`CC1=C(/C=C/C(C)=C/C=C/c2ccc(C=O)c(-c3ccccc3)c2)C(C)(C)CCC1`: the MIC in experiment [1], in experiment [2] and in experiment [3] was over 100 µg/mL throughout.

`CC1(c2ccc(-c3ccccc3)cc2)CC(c2ccc(-c3ccccc3)cc2)=CC=C1C=O` (stereo unspecified): the MIC in experiment [1], in experiment [2] and in experiment [3] was over 100 µg/mL in each case.

In the case of `CN(C)c1ccc(-c2cc(-c3ccc4ccccc4c3)ccc2C=O)cc1`, the MIC in experiment [1], in experiment [2] and in experiment [3] was over 100 µg/mL each time.

With `CC(C)=CCC1CC(C=O)=CC=C1C` (stereo unspecified), the MIC in experiment [1], in experiment [2] and in experiment [3] was over 100 µg/mL throughout.

As to `CC(C)=CC[C@H]1C(C)=CC=C(C=O)[C@H]1c1ccccc1`, the MIC in experiment [1], in experiment [2] and in experiment [3] was over 100 µg/mL in each case.

`Cc1ccc(C2=CC=C(C=O)C(c3ccc(N(C)C)cc3)C2)o1` (stereo unspecified): the MIC in experiment [1], in experiment [2] and in experiment [3] was over 100 µg/mL throughout.

With `CC1=CC=C(C=O)C(C)(c2ccc(-c3ccccc3)cc2)C1` (stereo unspecified), the MIC in experiment [1], in experiment [2] and in experiment [3] was over 100 µg/mL each time.

For `Cc1ccc(C2=CC=C(C=O)C(C)(C)C2)o1`, the minimum inhibitory concentration (MIC) in experiment [1], in experiment [2] and in experiment [3] was over 100 µg/mL each time.

For `CC(C)=CC[C@H]1C(C)=CC=C(C=O)[C@H]1c1ccc(N(C)C)cc1`, the MIC in experiment [1], in experiment [2] and in experiment [3] was over 100 µg/mL each time.

For `CC(C)=CC[C@@H]1C(C)=CC=C(C=O)[C@H]1c1ccccc1`, the MIC in experiment [1], in experiment [2] and in experiment [3] was over 100 µg/mL in each case.

With `CC1CC(c2ccc3ccccc3c2)=CC=C1C=O` (stereo unspecified), the MIC in experiment [1], in experiment [2] and in experiment [3] was over 100 µg/mL each time.

As for `CN(C)c1ccc(C2CC(c3ccc4c(c3)Cc3ccccc3-4)=CC=C2C=O)cc1` (stereo unspecified), the minimum inhibitory concentration (MIC) in experiment [1], in experiment [2] and in experiment [3] was over 100 µg/mL in each case.

Regarding `CC1=CC=C(C=O)C(c2ccc([N+](=O)[O-])cc2)C1` (stereo unspecified), the MIC in experiment [1], in experiment [2] and in experiment [3] was over 100 µg/mL in each case.

For the compound `CN(C)c1ccc(-c2cc(-c3ccccc3)ccc2C=O)cc1`, the MIC in experiment [1], in experiment [2] and in experiment [3] was over 100 µg/mL throughout.

`CC(C)=CCCC1=CC=C(C=O)C(c2ccc(N(C)C)cc2)C1` (stereo unspecified): the MIC in experiment [1], in experiment [2] and in experiment [3] was over 100 µg/mL in each case.

With `CC1CC(c2ccc(-c3ccccc3)cc2)=CC=C1C=O` (stereo unspecified), the MIC in experiment [1], in experiment [2] and in experiment [3] was over 100 µg/mL in each case.

Take `O=CC1=CC=C(c2ccccc2)CC1c1ccccc1` (stereo unspecified): the MIC in experiment [1], in experiment [2] and in experiment [3] was over 100 µg/mL throughout.

As for `CC1CC(c2ccc3c(c2)Cc2ccccc2-3)=CC=C1C=O` (stereo unspecified), the MIC in experiment [1], in experiment [2] and in experiment [3] was over 100 µg/mL each time.

Regarding `CC(C)=CCCC1=CC=C(C=O)C(C)C1` (stereo unspecified), the MIC in experiment [1], in experiment [2] and in experiment [3] was over 100 µg/mL throughout.

With `Cc1ccc(C=O)c(-c2ccccc2)c1`, the MIC in experiment [1], in experiment [2] and in experiment [3] was over 100 µg/mL each time.

In the case of `CC1=C(/C=C/C2=CC=C(C=O)C(C)C2)C(C)(C)CCC1` (stereo unspecified), the MIC in experiment [1], in experiment [2] and in experiment [3] was over 100 µg/mL each time.

On to `CC1=C(/C=C/C2=CC=C(C=O)C(c3ccc(N(C)C)cc3)C2)C(C)(C)CCC1` (stereo unspecified), for which the MIC in experiment [1], in experiment [2] and in experiment [3] was over 100 µg/mL in each case.

On to `CC1=C(/C=C/C(C)=C/C=C/C2=CC=C(C=O)C(C)(/C=C/C=C(C)/C=C/C3=C(C)CCCC3(C)C)C2)C(C)(C)CCC1` (stereo unspecified), for which the MIC in experiment [1], in experiment [2] and in experiment [3] was over 100 µg/mL throughout.

As for `CC1(c2cccs2)CC(c2ccc(-c3ccccc3)cc2)=CC=C1C=O` (stereo unspecified), the MIC in experiment [1] was 10 µg/mL (≈ 28.1 µM); in experiment [2] it was over 100 µg/mL; in experiment [3], over 100 µg/mL.

`CC(C)=CCC/C(C)=C/C[C@H]1C(C)=CC=C(C=O)[C@H]1c1ccc(N(C)C)cc1`: the MIC in experiment [1], in experiment [2] and in experiment [3] was over 100 µg/mL each time.

On to `O=CC1=CC=C(c2ccc(Cl)s2)CC1c1ccccc1` (stereo unspecified), for which the MIC in experiment [1], in experiment [2] and in experiment [3] was over 100 µg/mL in each case.

As for `CC1=C(/C=C/C(C)=C/C=C/C2=CC=C(C=O)CC2)C(C)(C)CCC1`, the MIC in experiment [1], in experiment [2] and in experiment [3] was over 100 µg/mL in each case.

Take `CCCCC[C@H]1C(C)=CC=C(C=O)[C@H]1c1ccc(N(C)C)cc1`: the MIC in experiment [1], in experiment [2] and in experiment [3] was over 100 µg/mL each time.

In the case of `CC(C)=CCCC1=CC=C(C=O)C(C)(CCC=C(C)C)C1` (stereo unspecified), the MIC in experiment [1], in experiment [2] and in experiment [3] was over 100 µg/mL each time.

As for `CN(C)c1ccc(C2CC(c3cccs3)=CC=C2C=O)cc1` (stereo unspecified), the MIC in experiment [1], in experiment [2] and in experiment [3] was over 100 µg/mL in each case.

On to `CC(C)=CC[C@H]1C(C)=CC=C(C=O)[C@H]1c1ccc([N+](=O)[O-])cc1`, for which the MIC is 10 µg/mL (≈ 32.1 µM) in experiment [1], over 100 µg/mL in experiment [2] and over 100 µg/mL in experiment [3].

As to `CCCCCCC1=CC=C(C=O)C(C)(CCCCCC)C1` (stereo unspecified), the MIC in experiment [1], in experiment [2] and in experiment [3] was over 100 µg/mL in each case.

On to `CC1=C(/C=C/C2=CC=C(C=O)C(c3ccc([N+](=O)[O-])cc3)C2)C(C)(C)CCC1` (stereo unspecified), for which the MIC in experiment [1], in experiment [2] and in experiment [3] was over 100 µg/mL each time.

`CC1=CC=C(C=O)C(C)(C)C1`: the MIC in experiment [1], in experiment [2] and in experiment [3] was over 100 µg/mL throughout.

Turning to `CN(C)c1ccc(-c2cc(-c3ccc4c(c3)Cc3ccccc3-4)ccc2C=O)cc1`, the MIC in experiment [1], in experiment [2] and in experiment [3] was over 100 µg/mL throughout.

With `CC1(c2ccc3c(c2)Cc2ccccc2-3)CC(c2ccc3c(c2)Cc2ccccc2-3)=CC=C1C=O` (stereo unspecified), the MIC in experiment [1], in experiment [2] and in experiment [3] was over 100 µg/mL each time.

Turning to `Cc1ccc(C=O)c(-c2ccc([N+](=O)[O-])cc2)c1`, the MIC in experiment [1], in experiment [2] and in experiment [3] was over 100 µg/mL throughout.
